The values that follow come from patent US20090054517A1, “Phytoestrogens As Regulators Of Hedgehog Signaling And Methods Of Their Use In Cancer Treatment” (priority 2007, published 2009).

Where two headings read alike, the source gives them in different places.

One data set deals with Gli1. Description: Gli1 mRNA expression by RT-PCR / real-time RT-PCR in TRAMP-C2 cells. Type of data set: cell-based, mouse. Particulars: for suppression of Gli1 mRNA concentration compared with cyclopamine 30 μM: TRAMP-C2, time course 72 hrs, genistein 50 μM, EGCG 100 μM, FIG. 7A. On the procedure:
(§1) It has been shown that phytoestrogens in common herbs regulate prostate cancer cell growth in vitro (Shenouda et al., 2004). In order to determine whether these phytoestrogens also regulate cells derived from the mouse model of prostate cancer, the TRAMP-C2 cell line was treated with the soy phytoestrogen genistein and growth inhibition IC50 doses were determined (FIG. 4). Effects of the phytoestrogens genistein and EGCG on expression of these Hedgehog-pathway components were also determined by quantitative RT-PCR. Cyclopamine was used as a control. […] GAPDH was used as an internal control.
Another experiment was carried out to determine the dosage response of these phytoestrogen on Gli1 expression in the TRAMP-C2 cell line. Increasing amounts of genistein or EGCG were added to cell cultures of TRAMP-C2, and the levels of Gli1 mRNA was determined by real time RT-PCR. The results of this experiment verifies a correlation between phytoestrogen treatment and Hedgehog activity (FIG. 6).
In order to test whether the inhibitory effect of genistein on Gli1 transcription is through ERα or ERβ, experiments were conducted to determine whether 17β-estradiol (E2) works in the same manner as genistein (FIG. 7C).

The next data set relates to TRAMP-C2 cells. In words: Growth of TRAMP-C2 cell line (total cellular protein). Type of data set: cell-based, mouse. Here is the method:
as §1

Data set [1] concerns Hedgehog signaling pathway. In words: Hedgehog pathway repression, approximate IC50 from RT-PCR. It counts as cell-based, mouse. The conditions noted are these: read-out: Approximate IC50 for pathway repression. On the procedure: Another experiment was carried out to determine the dosage response of these phytoestrogen on Gli1 expression in the TRAMP-C2 cell line. […] The results of this experiment verifies a correlation between phytoestrogen treatment and Hedgehog activity (FIG. 6). […] These concentrations may be easily obtainable pharmacologically in humans.

Data set [2] concerns Gli1 protein in LNCaP cells. Description: Gli1 protein concentration in LNCaP cells by Western blot. Type of data set: cell-based, human. On the procedure:
(§2) Approximate IC50 values for pathway repression were determined as 30 μM for genistein, 20 μM for EGCG, and 5 μM for resveratrol. These concentrations may be easily obtainable pharmacologically in humans. […] Thus, Genistein, EGCG, and resveratrol may regulate prostate cancer via inhibition of the Hedgehog signaling pathway.
For orientation: A western blot detects proteins with antibodies after separation by electrophoresis.

The test system of the next data set is Patched1. Description: Patched1 mRNA levels by RT-PCR. It counts as cell-based, mouse. Here is the method:
as §1, §2

Data set [3] has as its system Hedgehog pathway activity in Shh Light II cells. In words: Shh Light II Gli1-responsive luciferase reporter assay. It counts as cell-based. Particulars: Shh Light II cells with sonic hedgehog protein, 24 hours, FIG. 7B. On the procedure: The effects of various phytoestrogens on Hedgehog signaling in a non-tumor cell line Shh Light II were also assessed (FIG. 7B). Shh Light II cells were obtained from the ATCC. These cells, containing the Gli1 responsive promoter driving a luciferase reporter, are a standard tool used to assay Hedgehog pathway activity. Meloni et al., 2006. Cells were allowed to reach confluency in 24-well plates and subsequently treated with the selected phytoestrogens at the amount indicated on the figure, along with the stimulatory sonic hedgehog protein (obtained from R&D Systems). The cells were then grown for 24 hours in phenol red-free DMEM supplemented with 0.5% charcoal stripped fetal bovine serum. Cells were then lysed, and the luciferase and renilla activities of the cell lysates were measured.

The next data set has as its system xenograft tumors. Particulars: mice; cited from earlier work.
For data set [4] the following is noted: in vivo; cited from earlier work.
For data set [5], the system named is prostate tumor in ERWT/TRAMP mice. Description: Prostate tumorigenesis in ERWT/TRAMP mice fed genistein diet. Type of data set: in vivo, mouse. Here is the method:
(§3) The influence of estrogen on prostate cancer has been previously described in the Background section. In order to determine the effect of genistein on prostate tumor development in the TRAMP model, in the first experiment, groups of ˜30 male mice, either ERαKO/TRAMP, ERβKO/TRAMP or ERWT/TRAMP were fed diets containing 0 or 300 mg genistein/kg (See Table 1). Mice were fed the diets from weaning and were euthanized at 5 months of age. Prostates were dissected and prepared for histopathology. The tumor stage was assessed using ratings of normal (N), hyperplasia (HYP), prostatic intraepithelial neoplasia (PIN), well differentiated carcinoma (WDC), moderately differentiated carcinoma (MDC) or poorly differentiated carcinoma (PDC) See Wechter et al., 2000; also see http://thegreenberglab.fhcrc.org. To summarize the data, non-cancer was defined as N, HYP or PIN and cancer was defined as WDC, MDC or PDC (Table 1) The prostate tumor incidence was compared between mice fed with genistein diet and those fed with casein.

The test system of data set [6] is estrogen receptor alpha (ERα) and beta (ERβ). The conditions noted are these: cited from earlier work.
For data set [7], the system named is prostate tumor in ERαKO/TRAMP mice. In words: Prostate tumorigenesis in ERαKO/TRAMP mice fed genistein diet. Type of data set: in vivo, mouse. Here is the method:
as §3

Data set [8] concerns poorly differentiated carcinoma in TRAMP mouse. Particulars: TRAMP mouse model; cited from earlier work.
The test system of data set [9] is prostate tumor in ERβKO/TRAMP mice. In words: Prostate tumorigenesis in ERβKO/TRAMP mice fed genistein diet. Type of data set: in vivo, mouse. Here is the method: as §3
[10] abbreviates: ERWT/TRAMP, 300 mg genistein/kg diet, 5 months of age.
The mark [11] stands for this setting: ERαKO/TRAMP, 300 mg genistein/kg diet, 5 months of age.
Where [12] appears, read: ERβKO/TRAMP, 300 mg genistein/kg diet, 5 months of age.

On to `C[C@]12CC[C@@H]3c4ccc(O)cc4CC[C@H]3[C@@H]1CC[C@@H]2O` [E2, 17β-estradiol, reference compound], for which the “inhibition of Gli1 expression” value with Gli1 (TRAMP-C2 cells, 10 nM, 24 hours, FIG. 7C) was “Strong inhibition”.

Turning to `O=C(O[C@@H]1Cc2c(O)cc(O)cc2O[C@@H]1c1cc(O)c(O)c(O)c1)c1cc(O)c(O)c(O)c1` [EGCG], the “proliferation of TRAMP-C2 cells” value with TRAMP-C2 cells was “inhibited”. The “suppression of Gli1 mRNA concentration compared with cyclopamine 30 μM” value in the data set with Gli1 is listed as “more pronounced”. Besides, the “expression of Gli1, Gli2 and Gli3” value in the data set with Gli1 (TRAMP-C2 cells) was “down-regulate”. Besides, the 50% inhibitory concentration (IC50) in data set [1] (RT-PCR) was about 20 µM. Further, the Gli1 protein concentration result in [2] was “significantly reduced”. Also, the “reduction of Patched1 mRNA levels” value in the data set with Patched1 is 70%.

In the case of `COc1cc(/C=C/C(=O)CC(=O)/C=C/c2ccc(O)c(OC)c2)ccc1O` [curcumin], the “hedgehog activity (luciferase reporter activity)” value in data set [3] is given as “inhibit”.

For the compound `CC1=C2C[C@H]3[C@@H](CC=C4C[C@@H](O)CC[C@@]43C)[C@@H]2CC[C@]12O[C@@H]1C[C@H](C)CN[C@H]1[C@H]2C` [cyclopamine], in the data set with xenograft tumors, the “effect on xenograft tumors” value is recorded as “complete regression”. Moreover, the “birth defects in the progeny” value in data set [4] is “cause birth defects, most notably cyclopia”.

Consider `O=c1c(-c2ccc(O)cc2)coc2cc(O)cc(O)c12` [genistein], for which the “protective effect on prostate tumor incidence versus casein diet” value in data set [5] (ERWT/TRAMP mice, 300 mg genistein/kg diet from weaning to 5 months) is “significant protective effect”. For the same compound, in [5] (setting [10]), the “HYP (2), incidence” value is 28%; the “HYP (2), number of mice” value stood at 15; the “MDC (5), incidence” value is reported as 2%; the “MDC (5), number of mice” value was determined as 1. Further, in data set [5] (setting [10]), the “Normal (Stage1), number of mice” value is recorded as 0; the “PDC (6), incidence” value was found to be 24%; the “PDC (6), number of mice” value came out at 13; the “PIN (3), incidence” value amounted to 33%. Besides, in data set [5] (setting [10]), the “PIN (3), number of mice” value was 18; the “WDC (4), incidence” value is given as 13%; the “WDC (4), number of mice” value was found to be 7. In addition, the “proliferation of TRAMP-C2 cells” value with TRAMP-C2 cells is reported as “inhibited”. Also, the “binding to ERα and ERβ” value in data set [6] is given as “bind both receptors with a higher affinity for ERβ”. Besides, the “suppression of Gli1 mRNA concentration compared with cyclopamine 30 μM” value with Gli1 is “more pronounced”. Besides, the “expression of Gli1, Gli2 and Gli3” value in the data set with Gli1 (TRAMP-C2 cells) was “down-regulate”. Also, in the data set on Gli1 (TRAMP-C2 cells, RT-PCR, FIG. 5, GAPDH internal control), the “Gli1 expression compared to the untreated control” value is “down-regulates”. Further, the “effect of addition of genistein on inhibition of Gli1 expression by E2” value in the data set with Gli1 (TRAMP-C2 cells, with 10 nM E2, FIG. 7C) was “did not enhance”. Also, in [1] (Mus musculus), the IC50 is about 30 µM. Also, in data set [3], the “hedgehog activity (luciferase reporter activity)” value is reported as “inhibit”. Also, the “protective effect on prostate tumor incidence versus casein diet” value in [7] (ERαKO/TRAMP mice, 300 mg genistein/kg diet from weaning to 5 months) is recorded as “not”. In data set [7] (setting [11]), the “HYP (2), number of mice” value amounted to 0; the “MDC (5), incidence” value came out at 3.8%; the “MDC (5), number of mice” value came out at 1; the “Normal (Stage1), incidence” value was determined as 3.8%. For the same compound, in [7] (setting [11]), the “Normal (Stage1), number of mice” value came out at 1; the “PDC (6), number of mice” value was 0; the “PIN (3), incidence” value was determined as 3.8%; the “PIN (3), number of mice” value is 1. Also, in data set [7] (setting [11]), the “WDC (4), incidence” value was found to be 88.6% and the “WDC (4), number of mice” value is listed as 23. Further, the “effect on poorly differentiated carcinoma” value in [8] is reported as “protective effect”. Further, the “protective effect on prostate tumor incidence versus casein diet” value in data set [9] (ERβKO/TRAMP mice, 300 mg genistein/kg diet from weaning to 5 months) is “not”. For the same compound, in data set [9] (setting [12]), the “HYP (2), number of mice” value was 0; the “MDC (5), number of mice” value is on record as 0; the “Normal (Stage1), number of mice” value turned out to be 0; the “PDC (6), incidence” value was 48%. Also, in data set [9] (setting [12]), the “PDC (6), number of mice” value worked out at 10; the “PIN (3), incidence” value stood at 19%; the “PIN (3), number of mice” value was 4; the “WDC (4), incidence” value is reported as 33%. Also, the “WDC (4), number of mice” value in data set [9] (setting [12]) is 7. The Gli1 protein concentration entry in data set [2] is reported as “significantly reduced”. In addition, the “reduction of Patched1 mRNA levels” value in the data set with Patched1 turned out to be 70%.

For the compound `Oc1ccc(C=Cc2cc(O)cc(O)c2)cc1` [resveratrol], the “reduction of Gli1 mRNA” value in the data set on Gli1 (RT-PCR) is reported as 60%. The half-maximal inhibitory concentration (IC50) in data set [1] (Mus musculus, RT-PCR) is about 5 µM. The Gli1 protein concentration result in data set [2] is reported as “significantly reduced”. The “reduction of Patched1 mRNA levels” value in the data set with Patched1 is 50%.

The term IC50 denotes the midpoint of a concentration-inhibition curve.
